The values below come from US4774381A, “Herbicide resistant tobacco” (E. I. Du Pont de Nemours and Company, priority 1985, dated 1988).

The subject of experiment [1] is H1 (parent) callus. Briefly: Callus growth test with chlorsulfuron and structural analogues. The conditions noted are these: 10 ppb compound, 2 weeks in the dark. Type of experiment: cell-based, Nicotiana tabacum. As for the experimental part: (§1) In these growth tests, petri dishes containing C1 agar medium and 10 ppb of the sulfonamide herbicide chlorsulfuron and Compounds A through E were prepared. A sterile filter paper disc was placed in the center of each plate, and inoculated with 250 mg of callus tissue homozygous for the S4 mutation, or callus tissue derived from the haploid parent H1. The resulting cultures were incubated at 25° in the dark for 2 weeks. At the conclusion of the incubation period, filter discs containing callus cells were removed from culture dishes, placed on a Buchner funnel, and gentle suction applied to remove excess water. The resulting callus mass was then carefully scraped from the filter disc and weighed. Four replicates were included in each experiment.

The test system of experiment [2] is S4/S4 callus. The description is as above. Format: cell-based, Nicotiana tabacum. The conditions noted are these: 10 ppb compound, 2 weeks in the dark. As for the experimental part: as §1
Experiment [3] has as its system "resistant" regenerated plants. The settings on record: paraquat 10^-5 M; cited from earlier work.
For experiment [4], the system named is control plants. The settings on record: paraquat 10^-5 M; cited from earlier work.
Experiment [5] concerns picloram-tolerant tobacco mutants. The settings on record: cited from earlier work.

Take `Cc1cc(C)nc(NC(=O)NS(=O)(=O)c2ccccc2Cl)n1` [A]: the “Mean Fresh Weight” value in experiment [1] came to 0 g; in experiment [2], 5.16 g.

Turning to `COc1cc(C)nc(NC(=O)NS(=O)(=O)c2ccccc2Cl)n1` [B], the “Mean Fresh Weight” value in experiment [1] was 0 g; in experiment [2], 5.60 g.

Consider `COc1cc(OC)nc(NC(=O)NS(=O)(=O)c2ccccc2Cl)n1` [C], for which the “Mean Fresh Weight” value in experiment [1] was 0 g; in experiment [2], 5.08 g.

Take `Cc1nc(C)nc(NC(=O)NS(=O)(=O)c2ccccc2Cl)n1` [D]: the “Mean Fresh Weight” value turned out to be 0 g in experiment [1] and 4.53 g in experiment [2].

Take `COc1nc(NC(=O)NS(=O)(=O)c2ccccc2Cl)nc(OC)n1` [E]: the figures for the “Mean Fresh Weight” value in experiment [1] and in experiment [2] were 0 g and 4.97 g, respectively.

`C[n+]1ccc(-c2cc[n+](C)cc2)cc1` [paraquat]: the “time for leaves to bleach to white” value in experiment [3] was 4 to 7 days. Further, the “time for leaves to bleach to white (average)” value in experiment [4] is listed as 3.5 days.

Turning to `Nc1c(Cl)c(Cl)nc(C(=O)O)c1Cl` [picloram, 4-amino-3,5,6-trichloropicolinic acid], the seed germination entry in experiment [5] (100 μM picloram, seeds of tolerant mutants) is reported as “germinated”. The plantlet development result in experiment [5] (one month's exposure to 50 μM picloram, plantlets homozygous for tolerance mutations) is “developed stem callus tissue and degenerated”.
